Structures are written as SMILES.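 Method: 48-hour compound exposure of cells in 96-well plates, five concentrations, linear interpolation of endpoints. GI50: concentration for 50% inhibition of growth. TGI marks complete inhibition of growth.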 Some results are limits rather than exact numbers.

Among the test systems are A498 renal; CCRF-CEM leukemia; EKVX NSCLC; HCC-2998 colon; NCI-H226 lung; OVCAR-4 ovarian; UO-31 renal; NCI-H460 lung; TK-10 renal.
Common to all, as to assay: NCI-60 cell line screen, 48 h

`c1ccc(C2Nc3ccccc3C3OCCCC23)cc1` (stereo not drawn): the TGI was 71.9 µM with A498 renal; 84.8 µM in the assay with CCRF-CEM leukemia; 68.4 µM with EKVX NSCLC; above 100 µM in the assay on HCC-2998 colon; 68.3 µM with NCI-H226 lung; above 100 µM in the assay on OVCAR-4 ovarian. In the assay with UO-31 renal, this molecule registered a TGI above 100 µM.
As for `O=C(Nc1c(Cl)cc([N+](=O)[O-])cc1Cl)C(=O)C(C1OC(=O)c2ccccc21)[N+](=O)[O-]` (stereo not drawn), the TGI in the assay with A498 renal, in the assay on CCRF-CEM leukemia, in the assay on EKVX NSCLC, in the assay on HCC-2998 colon, in the assay with NCI-H226 lung and in the assay with NCI-H460 lung was above 100 µM throughout. For the same molecule, the TGI with OVCAR-4 ovarian, with TK-10 renal and in the assay with UO-31 renal was above 100 µM throughout.
As to `Cc1c(C(=O)/C=C/c2ccccc2)[n+](=O)c2ccccc2n1[O-]`, the TGI was determined as 31.3 µM in the assay on A498 renal; 74.7 µM in the assay with CCRF-CEM leukemia; 29.5 µM with EKVX NSCLC; 30.2 µM with HCC-2998 colon; 39.2 µM in the assay with NCI-H226 lung; 35.6 µM in the assay on NCI-H460 lung. Besides, the TGI is 33 µM with OVCAR-4 ovarian, 51.1 µM in the assay with TK-10 renal and 34.2 µM with UO-31 renal.
As to `CC(=O)C(=CN1CCN(C(=O)c2ccco2)C1=S)C(C)=O`, the GI50 with EKVX NSCLC was 11.2 µM; in the assay on NCI-H460 lung, 1.5 µM; with OVCAR-4 ovarian it was 10.6 µM; with TK-10 renal, 4.19 µM; with UO-31 renal it was 2.92 µM. For the same molecule, the TGI in the assay on EKVX NSCLC came to 28.6 µM; with NCI-H460 lung, 3.42 µM; in the assay on OVCAR-4 ovarian it was 32.7 µM; in the assay with TK-10 renal it was 14.3 µM; in the assay with UO-31 renal, 10.8 µM.
Take `C1CCC([PH+](C2CCCCC2)C2CCCCC2[PH+](C2CCCCC2)C2CCCCC2)CC1.O=C(C1[CH-]CCCC1)C1CCCC[N-]1.[Au]` (stereo not drawn): the GI50 with A498 renal was 0.0757 µM; in the assay with NCI-H226 lung, 0.455 µM; with UO-31 renal, 1.45 µM. Also, the TGI amounted to 0.584 µM in the assay on A498 renal, 2.43 µM in the assay with NCI-H226 lung and 2.76 µM with UO-31 renal.
Turning to `N#CC1CC2(C1)OCCS2` (stereo not drawn), the TGI in the assay on A498 renal, in the assay on CCRF-CEM leukemia, in the assay on EKVX NSCLC, in the assay with HCC-2998 colon, with NCI-H226 lung and in the assay with NCI-H460 lung was above 100 µM each time. Moreover, the TGI in the assay with OVCAR-4 ovarian, with TK-10 renal and in the assay on UO-31 renal was above 100 µM throughout.
In the case of `S=C1OC2CCCC[C@H]2O1` (stereo partly drawn), the TGI with CCRF-CEM leukemia, in the assay with EKVX NSCLC, with HCC-2998 colon, in the assay with NCI-H226 lung, with NCI-H460 lung and with OVCAR-4 ovarian was above 100 µM in each case. Also, the TGI in the assay on TK-10 renal and in the assay with UO-31 renal was above 100 µM in each case.
For `CCCCCCCCCCCC(=O)OCC1OC(OC)C(NC(=O)N(CCCl)N=O)C(O)C1O` (stereo not drawn), the TGI was found to be 35.7 µM with A498 renal; 13.8 µM in the assay with CCRF-CEM leukemia; 33.2 µM with HCC-2998 colon; 59.3 µM with NCI-H226 lung; 20.5 µM in the assay on NCI-H460 lung; 37.6 µM with OVCAR-4 ovarian. Further, the TGI is 61 µM with TK-10 renal and 33.5 µM in the assay on UO-31 renal.
With `N#Cc1cccnc1Cl`, the TGI with A498 renal, in the assay on CCRF-CEM leukemia, in the assay with EKVX NSCLC, with HCC-2998 colon, in the assay with NCI-H226 lung and in the assay with NCI-H460 lung was above 100 µM each time. The TGI with OVCAR-4 ovarian, with TK-10 renal and with UO-31 renal was above 100 µM throughout.
On to `O=C1CC2CCCC23CC2(CCN13)OCCO2` (stereo not drawn), for which the TGI in the assay on A498 renal, with CCRF-CEM leukemia, in the assay with EKVX NSCLC, in the assay on HCC-2998 colon, in the assay on NCI-H226 lung and with NCI-H460 lung was above 100 µM in each case. The TGI in the assay with OVCAR-4 ovarian, in the assay on TK-10 renal and with UO-31 renal was above 100 µM each time.
In the case of `O=C(NCO)NCOCn1c(=O)n(CO)c(=O)n(CO)c1=O`, the TGI was above 100 µM with A498 renal; 23.6 µM in the assay on CCRF-CEM leukemia; above 100 µM with EKVX NSCLC; above 100 µM with HCC-2998 colon; above 100 µM in the assay with NCI-H226 lung; above 94.8 µM with NCI-H460 lung. Also, the TGI in the assay on OVCAR-4 ovarian is above 77 µM; in the assay on TK-10 renal it was above 100 µM; in the assay with UO-31 renal, above 100 µM.
As to `O=C(c1ccccc1)C1OC12C(=O)Nc1ccccc12` (stereo not drawn), the TGI with A498 renal is above 100 µM; with CCRF-CEM leukemia, 25.2 µM; in the assay with EKVX NSCLC, above 100 µM; in the assay on NCI-H226 lung, above 100 µM; in the assay with NCI-H460 lung it was above 100 µM; in the assay with OVCAR-4 ovarian, above 100 µM. The TGI in the assay on TK-10 renal and in the assay with UO-31 renal was above 100 µM throughout.
With `COc1ccc(OC)c2c(C(=O)O)c(Cc3ccccc3)ccc12`, the TGI in the assay on A498 renal, in the assay with EKVX NSCLC, in the assay with HCC-2998 colon, in the assay with NCI-H226 lung, in the assay with NCI-H460 lung and in the assay on OVCAR-4 ovarian was above 100 µM in each case. Moreover, the TGI with TK-10 renal and in the assay on UO-31 renal was above 100 µM each time.
Take `C1C[OH+]CC[OH+]CC[OH+]CC[OH+]CC[OH+]1.[Cl-].[V]`: the GI50 with A498 renal was above 100 µM; in the assay on CCRF-CEM leukemia, above 100 µM; in the assay on HCC-2998 colon, above 100 µM; in the assay with NCI-H226 lung, 28.1 µM; with NCI-H460 lung it was 46.2 µM; with OVCAR-4 ovarian, 6.03 µM. For the same molecule, the GI50 in the assay on TK-10 renal is 83.5 µM; with UO-31 renal, 86.3 µM. The TGI in the assay with A498 renal is above 100 µM; in the assay with CCRF-CEM leukemia it was above 100 µM; in the assay on HCC-2998 colon it was above 100 µM; in the assay on NCI-H226 lung, above 100 µM; with NCI-H460 lung, above 100 µM; in the assay on OVCAR-4 ovarian, 41.6 µM. Further, the TGI in the assay with TK-10 renal and in the assay with UO-31 renal was above 100 µM each time.
In the case of `CCOC(=O)NC(=O)c1cn(CCCOC(=O)CCCCCCCCCCC(=O)OCCCn2cc(C(=O)NC(=O)OCC)c(=O)[nH]c2=O)c(=O)[nH]c1=O`, the TGI with CCRF-CEM leukemia, in the assay on EKVX NSCLC, with HCC-2998 colon, in the assay with NCI-H226 lung, with NCI-H460 lung and in the assay on OVCAR-4 ovarian was above 100 µM in each case. In addition, the TGI in the assay with TK-10 renal and in the assay on UO-31 renal was above 100 µM each time.
